Data taken from ChEMBL document CHEMBL5154823, “Amphiphilic cyclic peptide [W4KR5]-Antibiotics combinations as broad-spectrum antimicrobial agents” (Eur J Med Chem, 2022).
≈ marks a conversion by molar mass, not a printed value. Calls of active or inactive are those of the source. The rule behind the calls is not given here. Where a SMILES comes first, the peptide text is derived from it.

Legend:
Klebsiella pneumoniae [1] = experiment: Synergistic antibacterial activity against Klebsiella pneumoniae ATCC BAA 1705 assessed as fractional inhibitory concentration index incubated for 24 hrs in presence of tetracycline by checkerboard assay; type: functional
Pseudomonas aeruginosa [2] = experiment: Bactericidal activity against Pseudomonas aeruginosa ATCC BAA 1744 assessed as reduction in colony formation at MIC measured after 18 hrs by Time kill assay; type: functional, organism-based
Escherichia coli [3] = experiment: Synergistic antibacterial activity against Escherichia coli ATCC 25922 assessed as fractional inhibitory concentration index incubated for 24 hrs in presence of vancomycin by checkerboard assay; type: functional
Escherichia coli [4] = experiment: Synergistic antibacterial activity against Escherichia coli ATCC 25922 assessed as fractional inhibitory concentration index incubated for 24 hrs in presence of ciprofloxacin by checkerboard assay; type: functional
Pseudomonas aeruginosa [5] = experiment: Synergistic antibacterial activity against Pseudomonas aeruginosa ATCC 27883 assessed as fractional inhibitory concentration index incubated for 24 hrs in presence of meropenem by checkerboard assay; type: functional
Escherichia coli [6] = experiment: Antibacterial activity against Escherichia coli ATCC 25922 assessed as reduction in microbial growth incubated for 24 hrs by microbroth dilution method; type: functional
Pseudomonas aeruginosa [7] = experiment: Synergistic antibacterial activity against Pseudomonas aeruginosa ATCC 27883 assessed as fractional inhibitory concentration index incubated for 24 hrs in presence of tetracycline by checkerboard assay; type: functional
Escherichia coli [8] = experiment: Synergistic antibacterial activity against Escherichia coli ATCC 25922 assessed as fractional inhibitory concentration index incubated for 24 hrs in presence of meropenem by checkerboard assay; type: functional
Pseudomonas aeruginosa [9] = experiment: Antibacterial activity against Pseudomonas aeruginosa ATCC 27883 assessed as tobramycin MIC incubated for 24 hrs by microbroth dilution assay; type: functional
Escherichia coli [10] = experiment: Antibacterial activity against Escherichia coli ATCC 25922 assessed as levofloxacin MIC incubated for 24 hrs by microbroth dilution assay; type: functional
Staphylococcus aureus [11] = experiment: Antibacterial activity against Staphylococcus aureus ATCC BAA -1556 assessed clindamycin MIC incubated for 24 hrs by microbroth dilution assay; type: functional
Klebsiella pneumoniae [12] = experiment: Antibacterial activity against Klebsiella pneumoniae ATCC BAA 1705 assessed as tobramycin MIC incubated for 24 hrs by microbroth dilution assay; type: functional
Pseudomonas aeruginosa [13] = experiment: Antibacterial activity against carbapenem resistant Pseudomonas aeruginosa ATCC BAA 1744 assessed as reduction in microbial growth incubated for 24 hrs by microbroth dilution method; type: functional
Staphylococcus aureus [14] = experiment: Synergistic antibacterial activity against methicillin resistant Staphylococcus aureus ATCC BAA -1556 assessed as fractional inhibitory concentration index incubated for 24 hrs in presence of daptomycin by checkerboard assay; type: functional
Klebsiella pneumoniae [15] = experiment: Synergistic antibacterial activity against Klebsiella pneumoniae ATCC BAA 1705 assessed as fractional inhibitory concentration index incubated for 24 hrs in presence of clindamycin by checkerboard assay; type: functional
Pseudomonas aeruginosa [16] = experiment: Synergistic antibacterial activity against Pseudomonas aeruginosa ATCC 27883 assessed as fractional inhibitory concentration index incubated for 24 hrs in presence of ciprofloxacin by checkerboard assay; type: functional
Cell membrane [17] = experiment: Induction of membrane disruption in Pseudomonas aeruginosa ATCC BAA 1744 assessed as increase in PI positive cells at MIC incubated for 2 hrs by Propidium iodide staining based FACS cytometry analysis relative to control
Pseudomonas aeruginosa [18] = experiment: Synergistic antibacterial activity against Pseudomonas aeruginosa ATCC 27883 assessed as fractional inhibitory concentration index incubated for 24 hrs in presence of tobramycin by checkerboard assay; type: functional
Pseudomonas aeruginosa [19] = experiment: Antibacterial activity against Pseudomonas aeruginosa ATCC 27883 assessed as ciprofloxacin MIC incubated for 24 hrs by microbroth dilution assay; type: functional
Escherichia coli [20] = experiment: Antibacterial activity against Escherichia coli ATCC 25922 assessed as tetracycline MIC incubated for 24 hrs by microbroth dilution assay; type: functional
Staphylococcus aureus [21] = experiment: Antibacterial activity against Staphylococcus aureus ATCC BAA -1556 assessed as vancomycin MIC incubated for 24 hrs by microbroth dilution assay; type: functional
Staphylococcus aureus [22] = experiment: Synergistic antibacterial activity against methicillin resistant Staphylococcus aureus ATCC BAA -1556 assessed as fractional inhibitory concentration index incubated for 24 hrs in presence of tetracycline by checkerboard assay; type: functional
[23] = Cytotoxicity against HEK293 cells assessed as effect on cell viability at 10 to 25 ug/ml incubated for 24 hrs by microplate reader analysis relative to control; type: toxicity, cell-based; settings: human, at 10 to 25 µg/mL, dose 10-25 µg/ml, read-out: Activity
Staphylococcus aureus [24] = experiment: Bactericidal activity against methicillin resistant Staphylococcus aureus ATCC BAA 1556 assessed as reduction in bacterial viability at MIC measured after 2 hrs by Time kill assay; type: functional, organism-based
Pseudomonas aeruginosa [25] = experiment: Synergistic antibacterial activity against Pseudomonas aeruginosa ATCC 27883 assessed as fractional inhibitory concentration index incubated for 24 hrs in presence of polymyxin B by checkerboard assay; type: functional
Escherichia coli [26] = experiment: Synergistic antibacterial activity against Escherichia coli ATCC 25922 assessed as fractional inhibitory concentration index incubated for 24 hrs in presence of tetracycline by checkerboard assay; type: functional
Klebsiella pneumoniae [27] = experiment: Antibacterial activity against Klebsiella pneumoniae ATCC BAA 1705 assessed as ciprofloxacin MIC incubated for 24 hrs by microbroth dilution assay; type: functional
Klebsiella pneumoniae [28] = experiment: Antibacterial activity against Klebsiella pneumoniae ATCC 13883 assessed as reduction in microbial growth incubated for 24 hrs by microbroth dilution method; type: functional
Pseudomonas aeruginosa [29] = experiment: Synergistic antibacterial activity against Pseudomonas aeruginosa ATCC 27883 assessed as fractional inhibitory concentration index incubated for 24 hrs in presence of vancomycin by checkerboard assay; type: functional
Klebsiella pneumoniae [30] = experiment: Bactericidal activity against Klebsiella pneumoniae ATCC BAA 1705 assessed as reduction in colony formation at MIC measured after 24 hrs by Time kill assay; type: functional, organism-based
Klebsiella pneumoniae [31] = experiment: Bactericidal activity against Klebsiella pneumoniae ATCC BAA 1705 assessed as decrease of bacterial growth at MIC by Time kill assay; type: functional, organism-based
Pseudomonas aeruginosa [32] = experiment: Antibacterial activity against Pseudomonas aeruginosa ATCC 27883 assessed as reduction in microbial growth incubated for 24 hrs by microbroth dilution method; type: functional
Klebsiella pneumoniae [33] = experiment: Synergistic antibacterial activity against Klebsiella pneumoniae ATCC BAA 1705 assessed as fractional inhibitory concentration index incubated for 24 hrs in presence of ciprofloxacin by checkerboard assay; type: functional
HepaRG = experiment: Cytotoxicity against human HepaRG cells assessed as assessed as reduction in cell viability at 50 to 150 ug/ml incubated for 24 hrs by microplate reader analysis relative to control; type: toxicity, cell-based; settings: at 50 to 150 µg/mL, dose 50-150 µg/ml
Escherichia coli [34] = experiment: Synergistic antibacterial activity against Escherichia coli ATCC 25922 assessed as fractional inhibitory concentration index incubated for 24 hrs in presence of polymyxin B by checkerboard assay; type: functional
Klebsiella pneumoniae [35] = experiment: Synergistic antibacterial activity against Klebsiella pneumoniae ATCC 13883 assessed as fractional inhibitory concentration index incubated for 24 hrs in presence of meropenem by checkerboard assay; type: functional
Staphylococcus aureus [36] = experiment: Antibacterial activity against Staphylococcus aureus ATCC 29213 assessed as reduction in microbial growth incubated for 24 hrs by microbroth dilution method; type: functional
Klebsiella pneumoniae [37] = experiment: Antibacterial activity against Klebsiella pneumoniae ATCC BAA 1705 assessed as levofloxacin MIC incubated for 24 hrs by microbroth dilution assay; type: functional
Cell membrane [38] = experiment: Induction of membrane disruption in Pseudomonas aeruginosa ATCC BAA 1744 assessed as increase in PI positive cells at 4 times of MIC incubated for 2 hrs by Propidium iodide staining based FACS cytometry analysis relative to control; type: subcellular

N=C(N)NCCC[C@@H]1NC(=O)[C@H](CCCNC(=N)N)NC(=O)[C@H](CCCNC(=N)N)NC(=O)[C@H](CCCNC(=N)N)NC(=O)[C@H](Cc2c[nH]c3ccccc23)NC(=O)[C@H](Cc2c[nH]c3ccccc23)NC(=O)[C@H](Cc2c[nH]c3ccccc23)NC(=O)[C@H](Cc2c[nH]c3ccccc23)NC(=O)[C@H](CCCCN)NC(=O)[C@H](CCCNC(=N)N)NC1=O (cyclo(KWWWWRRRRR))
fractional inhibitory concentration index (FICI) (Klebsiella pneumoniae [1]): 0.3125 | Activity (Pseudomonas aeruginosa [2]): Active | fractional inhibitory concentration index (FICI) (Escherichia coli [3]): 0.5625 | fractional inhibitory concentration index (FICI) (Escherichia coli [4]): 0.625 | fractional inhibitory concentration index (FICI) (Pseudomonas aeruginosa [5]): 0.375 | MIC (Escherichia coli [6]): 16 µg/mL | fractional inhibitory concentration index (FICI) (Pseudomonas aeruginosa [7]): 0.375 | fractional inhibitory concentration index (FICI) (Escherichia coli [8]): 1.25 | MIC (Pseudomonas aeruginosa [9]): 0.125 µg/mL | MIC (Escherichia coli [10]): 8 µg/mL | MIC (Staphylococcus aureus [11]): 0.031 µg/mL (≈ 0.0187 µM) | MIC (Klebsiella pneumoniae [12]): 2 µg/mL | MIC (Pseudomonas aeruginosa [13]): 16 µg/mL | fractional inhibitory concentration index (FICI) (Staphylococcus aureus [14]): 0.5 | fractional inhibitory concentration index (FICI) (Klebsiella pneumoniae [15]): 0.257 | fractional inhibitory concentration index (FICI) (Pseudomonas aeruginosa [16]): 0.5 | Activity (Cell membrane [17]): 39.9% | fractional inhibitory concentration index (FICI) (Pseudomonas aeruginosa [18]): 0.5 | MIC (Pseudomonas aeruginosa [19]): 0.125 µg/mL | MIC (Escherichia coli [20]): 2 µg/mL | MIC (Staphylococcus aureus [21]): 0.25 µg/mL | fractional inhibitory concentration index (FICI) (Staphylococcus aureus [22]): 0.5 | viability at 24 h [23]: 86% | Activity (Staphylococcus aureus [24]): Active | fractional inhibitory concentration index (FICI) (Pseudomonas aeruginosa [25]): 0.375 | fractional inhibitory concentration index (FICI) (Escherichia coli [26]): 0.5 | MIC (Klebsiella pneumoniae [27]): 16 µg/mL | MIC (Klebsiella pneumoniae [28]): 16 µg/mL | fractional inhibitory concentration index (FICI) (Pseudomonas aeruginosa [29]): 0.531 | Activity (Klebsiella pneumoniae [30]): Active | Activity (Klebsiella pneumoniae [31]): Active | MIC (Pseudomonas aeruginosa [32]): 16 µg/mL | fractional inhibitory concentration index (FICI) (Klebsiella pneumoniae [33]): 0.562 | Activity (HepaRG): 71% | fractional inhibitory concentration index (FICI) (Escherichia coli [34]): 0.3125 | fractional inhibitory concentration index (FICI) (Klebsiella pneumoniae [35]): 0.625 | MIC (Staphylococcus aureus [36]): 4 µg/mL | MIC (Klebsiella pneumoniae [37]): 8 µg/mL | Activity (Cell membrane [38]): 66.8%
